Laboratory results as given in ChEMBL document CHEMBL1147517, “Potent and selective inhibitors of bacterial methionyl tRNA synthetase derived from an oxazolone-dipeptide scaffold” (Bioorg Med Chem Lett, 2004).

Experiments:
[1] = target: T1, Methionine--tRNA ligase, cytoplasmic (Homo sapiens) (UniProt P56192); assay: Inhibition of human methionyl-tRNA synthetase (fMetRS) at the concentration of 10 uM
T1 sequence (whole entry): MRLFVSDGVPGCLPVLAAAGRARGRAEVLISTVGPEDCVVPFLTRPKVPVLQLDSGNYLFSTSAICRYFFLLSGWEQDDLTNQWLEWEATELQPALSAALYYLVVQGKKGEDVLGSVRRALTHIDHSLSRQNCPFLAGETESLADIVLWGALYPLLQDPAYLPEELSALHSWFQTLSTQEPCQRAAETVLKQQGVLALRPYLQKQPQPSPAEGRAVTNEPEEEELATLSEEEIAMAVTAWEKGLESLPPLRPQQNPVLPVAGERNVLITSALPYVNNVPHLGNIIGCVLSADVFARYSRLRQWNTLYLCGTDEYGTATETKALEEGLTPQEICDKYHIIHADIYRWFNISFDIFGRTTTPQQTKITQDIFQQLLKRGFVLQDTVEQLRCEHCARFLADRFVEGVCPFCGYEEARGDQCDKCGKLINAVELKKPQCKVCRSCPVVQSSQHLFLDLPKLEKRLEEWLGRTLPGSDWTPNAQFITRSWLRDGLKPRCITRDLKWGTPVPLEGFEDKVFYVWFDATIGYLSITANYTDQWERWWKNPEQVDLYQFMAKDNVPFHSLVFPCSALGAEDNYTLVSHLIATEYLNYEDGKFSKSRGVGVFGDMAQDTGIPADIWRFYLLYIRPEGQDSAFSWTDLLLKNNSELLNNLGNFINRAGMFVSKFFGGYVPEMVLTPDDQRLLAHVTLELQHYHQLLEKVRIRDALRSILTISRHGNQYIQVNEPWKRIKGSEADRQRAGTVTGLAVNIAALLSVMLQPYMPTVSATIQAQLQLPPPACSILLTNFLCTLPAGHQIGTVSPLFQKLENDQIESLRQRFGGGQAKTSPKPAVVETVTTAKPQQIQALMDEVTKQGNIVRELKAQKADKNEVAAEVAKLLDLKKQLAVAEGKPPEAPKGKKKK

[2] = system: Methionine--tRNA ligase (Staphylococcus aureus); assay: Inhibition of Staphylococcus aureus methionyl-tRNA synthetase (SaMetRS) at the concentration of 10 uM
[3] = system: Methionine--tRNA ligase (Enterococcus faecalis); assay: Inhibition of Enterococci faecalis methionyl-tRNA synthetase (EfMetRS); Inactive
[4] = system: Methionine--tRNA ligase (Enterococcus faecalis); assay: Inhibition of Enterococci faecalis methionyl-tRNA synthetase (EfMetRS) at the concentration of 10 uM
[5] = target: T2, Methionine--tRNA ligase, cytoplasmic (Homo sapiens, UniProt P56192); assay: Inhibition of human methionyl-tRNA synthetase (fMetRS)
T2 sequence (P56192 whole entry): T1 sequence (whole entry)

inhibition [1] [%] | inhibition [2] [%] | IC50 [3] | inhibition [4] [%] | IC50 [5] [µM] | Structure (SMILES)
23 | 39 | Not Active |  |  | NC(=O)[C@H](Cc1ccc(O)cc1)NC(=O)C1CCCN(/C=C2\N=C(c3ccc(Br)cc3)OC2=O)C1 (some centres undefined)
19 | 55 |  | 7 |  | NC(=O)[C@H](Cc1ccc(O)cc1)NC(=O)C1CCCCN1/C=C1\N=C(c2ccc(Br)cc2)OC1=O (some centres undefined)
20 | 43 |  | 2 |  | NC(=O)[C@H](Cc1ccc(O)cc1)NC(=O)C1CCCN(/C=C2\N=C(c3ccc(Cl)cc3Cl)OC2=O)C1 (some centres undefined)
 |  |  |  | > 100 | CCC/C(=C1/N=C(c2ccc(Br)cc2)OC1=O)N1CCC[C@H]1C(=O)N[C@@H](Cc1ccc(O)cc1)C(N)=O
88 | 73 |  | 60 |  | NC(=O)[C@H](Cc1ccc(O)cc1)NC(=O)C1CCCCN1/C=C1\N=C(c2ccc(Cl)cc2Cl)OC1=O (some centres undefined)
5 | 3 |  | 5 |  | NC(=O)[C@H](Cc1ccc(O)cc1)NC(=O)C1CCN(/C=C2\N=C(c3ccc(Cl)cc3Cl)OC2=O)CC1
 |  |  |  | > 100 | NC(=O)[C@H](Cc1ccc(O)cc1)NC(=O)[C@@H]1CCN1/C=C1\N=C(c2ccc(Br)cc2)OC1=O
6 | 1 |  | 7 |  | NC(=O)[C@H](Cc1ccc(O)cc1)NC(=O)C1CCN(/C=C2\N=C(c3ccc(Br)cc3)OC2=O)CC1
 |  |  |  | > 100 | CC/C(=C1/N=C(c2ccc(Br)cc2)OC1=O)N1CCC[C@H]1C(=O)N[C@@H](Cc1ccc(O)cc1)C(N)=O
 |  |  |  | > 100 | CCC/C(=C1/N=C(c2ccc(Br)cc2)OC1=O)N1CC[C@H]1C(=O)N[C@@H](Cc1ccc(O)cc1)C(N)=O
 |  |  |  | > 100 | NC(=O)[C@H](Cc1ccc(O)cc1)NC(=O)[C@@H]1CCCN1/C=C1\N=C(c2ccc(Cl)cc2Cl)OC1=O
5 |  |  |  |  | NC(=O)[C@H](Cc1ccc(O)cc1)NC(=O)[C@@H]1CCCN1/C=C1\N=C(c2ccc(Br)cc2)OC1=O
